The target of one data set is T1, QR1 (Homo sapiens, UniProt P15559).
T1 construct: purchased Sigma-Aldrich
In words: QR1 selectivity assay, fluorescence. The format is biochemical. Particulars: Figure 2D; readout not stated. The source says: (§1) A drug discovery campaign strategy was initiated to screen compounds for QR2-specific, cell-free inhibition and in vitro activity, followed by SAR optimization (Figure 2A) to achieve highly specific and potent QR2 inhibitor synthesis. In order to establish a varied and chemically amenable starting point, we developed a high-throughput QR2 assay (Supplemental Methods) that we screened against a library with approximately 200,000 compounds. […] Compounds that replicated the initial hit result were then assayed similarly against QR1 to evaluate compound specificity (Figure 2B). From the HTS, a chemically tractable and attractive series of compounds containing a sulfone flanked by an amine and a heterocycle were identified and selected for SAR development (Figure 2C, Supplemental Methods, Supplemental Table 1, and Supplemental Table 2). […]
(§2) menadione and 10 nM of QR2) were dispensed in 1536-well black Nunc plates (Thermo-Fisher) using aMultidrop™ Combi Reagent Dispenser (Thermo-Fisher) and pre-incubated with compounds for 10min. BNAH (200µM) was t hen added (3 µL) to the reaction using a BioNex Solutions BNX1536plate washer and the plates were incubated for another 10 min. Fluorescence intensity was followed in a PHERAstar FS multi-mode plate reader (BMG Labtech) us i ng an optic module with excitation at 360 nm and emission at 470 nm. The initial HTS includedapproximately 200,000 compounds at a single concentrationof 5 µM. The chemical libraries used were Selleck Chemicals Bioactives, the Drug-like set from Enamine, HitFinder collection from Maybridge, Spectrum Collection from Microsource, Lopa c from Sigma -Aldrich and the diversity set s from Chem Div and Che m Br idge .
Initial ‘‘hit’’ compounds were defined as causing >30% reduction of enzyme activity. Compounds suspected to be fluorescent were re -assayed in an absorbance assay at 350 nm using the same reaction but in a higher volume (100 µL), in a transparent plate (Greiner Bio- One). ‘‘Hit’’ compounds resulting from both the fluorescence and absorbance assay wer e t ested in a concentration- response, and IC50 values were de t er mi ne d. In parallel, the same

For the next data set, the target named is T2, QR2 (Homo sapiens, UniProt P16083).
T2 construct: purchased Sigma-Aldrich
T2 sequence (P16083 1-231): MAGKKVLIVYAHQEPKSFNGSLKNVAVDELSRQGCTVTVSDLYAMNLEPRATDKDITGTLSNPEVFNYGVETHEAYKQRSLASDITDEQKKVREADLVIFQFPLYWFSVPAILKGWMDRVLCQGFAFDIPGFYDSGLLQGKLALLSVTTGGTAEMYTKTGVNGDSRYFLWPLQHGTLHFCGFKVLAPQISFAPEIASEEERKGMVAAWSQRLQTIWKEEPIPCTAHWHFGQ
In words: QR2 activity assay, BNAH fluorescence (standard/primary). The settings on record: Figure 2D; readout not stated. It counts as biochemical.
From the text: as §1
High Throughput Screen (H TS)
The enzymatic activity of QR 2 (10 nM) was measur ed using menadione (both Sigm a -Aldrich) as subst r at e and dihydro- benzylnicotinamide (BNAH; Tocris) as co-substrate(62). The reaction was performed in 50 mM Tri s HCl, 150 mM NaCl 0.01%Tween- 20 pH=8.5 (Sigma-Aldrich) at r oom tem per atur e. Briefl y, 3 µL of menadione alone (200 µM) or a mixture of menadione and QR2 (200 µM of […]
as §2
Initial ‘‘hit’’ compounds were defined as causing >30% reduction of enzyme activity. Compounds suspected to be fluorescent were re -assayed in an absorbance assay at 350 nm using the same reaction but in a higher volume (100 µL), in a transparent plate (Greiner Bio- One). ‘‘Hit’’ compounds resulting from both the fluorescence and absorbance assay wer e t ested in a concentration- response, and IC50 values were de t er mi ne d. In parallel, the same concentration response methodologywas appliedin a selectivity assay where QR2 enzymewas replaced byQR1 […]
Chromatography System, with UV/Vis detector 2489, using XBridge® Prep C18 10 μm 10x250 mm […]
was monitored by Wat er s UPLC-MS system: Acquity UPLC® H class with PDA detector, and using […]

Data set [1] can be described thus: Solubility in water / saline. It counts as physicochemical.

T1 sequence (P15559 whole entry): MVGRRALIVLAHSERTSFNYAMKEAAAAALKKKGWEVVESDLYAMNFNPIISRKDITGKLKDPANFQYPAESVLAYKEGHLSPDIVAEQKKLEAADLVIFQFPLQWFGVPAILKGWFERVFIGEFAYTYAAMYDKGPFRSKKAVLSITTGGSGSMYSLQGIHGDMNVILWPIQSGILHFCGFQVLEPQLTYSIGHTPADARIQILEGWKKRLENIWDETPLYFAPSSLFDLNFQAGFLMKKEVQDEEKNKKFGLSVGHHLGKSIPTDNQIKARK

For orientation: IC50 means the concentration that inhibits the measured activity by half. A high value points to lower potency. For `Cc1ccn2cc(-c3ccc(C)c(S(=O)(=O)NCc4cccnc4)c3)nc2c1` [YB-812], the IC50 on QR1 is over 9.99 µM; on QR2, 6.92 µM.

With `Cc1nc(-c2ccc(C)c(S(=O)(=O)N3CCC(C)CC3)c2)cs1` [YB-104], half-maximal inhibition at QR2 (IC50) was put at 7.39 µM. Turning to `Cc1ccc(-c2cn3cccc(C)c3n2)cc1S(=O)(=O)N1CCN(C)CC1` [YB-540], the solubility in water result in data set [1] is “water soluble”. Half-maximal inhibition against QR2 (IC50) was put at 0.21 µM. As to `Cc1ccc(-c2cn3cccc(C)c3n2)cc1S(=O)(=O)N1CCN(C(=O)c2ccco2)CC1` [YB-792], the values for the 50% inhibitory concentration (IC50) at QR1 and against QR2 were 3.33 µM and 0.008 µM, respectively. The like results for `Cc1ccc(-c2nnc(-c3ccccc3)o2)cc1S(=O)(=O)NCCCN1CCCC1=O` [YB-818] were, in that order, over 9.99 µM and over 9.99 µM. The matching figures for `Cc1ccn2cc(-c3ccc(C)c(S(=O)(=O)Nc4ccc(Cl)cc4)c3)nc2c1` [YB-816]: over 9.99 µM and over 9.99 µM. The matching figures for `Cc1ccc(-c2nnc(-c3ccccc3)o2)cc1S(=O)(=O)N1CCN(C(=O)c2ccco2)CC1` [YB-789]: over 9.99 µM and 5.71 µM.
